The test system of assay [1] is West Nile virus NS2B/NS3 protease. The note with it: cited from earlier work.
The next assay deals with WNV NS2B/NS3 protease (West Nile virus, UniProt P06935). Description: In vitro NS2B/NS3 protease inhibition (fluorescent substrate Pyr-RTKR-AMC, progress curve method). The class given is biochemical. The settings on record: for percent of inhibition: inhibitor 100 µM, after 30 min incubation at 37 °C; for k2/Ki: Table 2, peptide phosphonates; for improvement in inhibitory potency after introduction of P2 Arg and P3 Lys: peptidyl derivative vs. simple Cbz-protected parent phosphonate. The procedure: For the initial screening, Cbz-protected aminophosphonates were assayed in 96 well microplates (Nunc™ F96 MicroWell™ White Polystyrene Plate) in the following protease buffer: 50 mM Tris, 1 mM Chaps, 20% glycerol, pH 8.5. WNV NS2B/NS3 protease (AnaSpec, Liege, Belgium; 20 nM) was pre-incubated with tested inhibitor (100 µM) in the protease buffer at 37 °C for 10 min prior an addition of the fluorescent substrate Pyr-RTKR-AMC (AnaSpec, Liege, Belgium; 20 µM). The progress of the reaction was monitored continuously (λex = 354 nm, λem = 442 nm) at 37 °C on a Spectra Max Gemini XPS spectrofluorometer (Molecular Devices, Sunnyvale, CA) for 30 min. […] In 96 well microplates narrowed concentration of inhibitors and constant substrate concentration (Pyr-RTKR-AMC, C = 20 µM, KM = 59 µM) were prepared. The enzyme solution was added and enzymatic reaction was monitored (Figure S1). Using a model for irreversible inhibition, in which the first order inactivation rate constant kobs is hyperbolic dependent from the inhibitor concentration Ki and k2/Ki values were calculated (equations (1–4) in supplementary material)[29]. Control progress curves in the absence of inhibitor were linear.
The inhibitory activity of the compounds was determined by the progress curve method. First the data from nonlinear progress curves with time dependent inhibitors were fit to eq.1 to obtain the first-order rate constant (kobs):
The second-order rate constants (k2/KI) and (KI)app values were calculated using hyperbolic regression according to equation 3: […]
KI values were calculated according to equation 3: […]

The target of another assay is T1, Bovine β-trypsin (Bos taurus, UniProt P00760).
T1 construct: purchased AppliChem, Łódź, Poland
T1 sequence (P00760 24-246): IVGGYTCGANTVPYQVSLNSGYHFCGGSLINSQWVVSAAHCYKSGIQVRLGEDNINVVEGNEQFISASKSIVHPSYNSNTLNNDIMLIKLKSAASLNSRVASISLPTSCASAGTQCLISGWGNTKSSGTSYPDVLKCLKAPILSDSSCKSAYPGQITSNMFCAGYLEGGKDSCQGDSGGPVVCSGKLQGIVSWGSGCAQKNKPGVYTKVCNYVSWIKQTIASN
In words: Control proteases inhibition assay, trypsin. The format is biochemical. The note with it: inhibitor concentration 25 μM; after 30 min incubation at 37 °C. The procedure:
(§1) Bovine β-trypsin (AppliChem, Łódź, Poland), human cathepsin G (Biocentrum, Kraków, Poland) and Human Airway Trypsin-like Protease (HAT) (R&D Systems, Minneapolis, MN) were used as control proteases to screen the activity of NS2B/NS3 protease inhibitors (36–39) obtained in this study. Inhibitors were assayed in 96-well microplates in the 0.1 M HEPES, 0.5 M NaCl, 0.03%, pH 7.5 Triton X-100 (for bovine β-trypsin and cathepsin G). Bovine β-trypsin (15 nM), human cathepsin G (150 nM) or HAT protease (0.001 µg) was pre-incubated with tested inhibitor (25 µM) in the protease buffer at 37 °C for 10 min prior to the addition of the fluorescent substrate: Cbz-Arg-AFC (synthesised in-house according to the procedure described by Bissell[30]; 50 µM; λex = 400 nm, λem = 505 nm, for bovine β-trypsin); MeO-Suc-Ala-Ala-Pro-Val-AMC (Bachem, Bubendorf, Switzerland; 40 µM, λex = 340 nm, λem = 440 nm, for human cathepsin G) or Phe-Ser Arg-AMC (Bachem, Bubendorf, Switzerland; 40 µM, λex = 340 nm, λem = 440 nm, for HAT protease). The progress of the reactions was monitored continuously at 37 °C on a Spectra Max Gemini XPS spectrofluorometer for 20 min. Control curves in the absence of inhibitor were linear. The rate of the tested protease inhibition was calculated from the linear range of the plot.

Another assay addresses T2, human cathepsin G (Homo sapiens, UniProt P08311).
T2 construct: purchased Biocentrum, Kraków, Poland
T2 sequence (P08311 21-255): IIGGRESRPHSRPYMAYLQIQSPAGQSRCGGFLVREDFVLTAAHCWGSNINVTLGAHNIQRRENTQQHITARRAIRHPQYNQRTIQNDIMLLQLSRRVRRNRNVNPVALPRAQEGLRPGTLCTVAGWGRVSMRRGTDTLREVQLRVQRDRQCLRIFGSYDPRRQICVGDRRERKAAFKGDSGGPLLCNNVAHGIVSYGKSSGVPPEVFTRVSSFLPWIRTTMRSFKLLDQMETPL
In words: Control proteases inhibition assay, cathepsin G. The format is biochemical. The note with it: inhibitor concentration 25 μM; after 30 min incubation at 37 °C. The procedure:
as §1

The target in assay [2] is T3, Human Airway Trypsin-like Protease (HAT) (Homo sapiens, UniProt O60235).
T3 construct: purchased R&D Systems, Minneapolis, MN
T3 sequence (O60235 1-418): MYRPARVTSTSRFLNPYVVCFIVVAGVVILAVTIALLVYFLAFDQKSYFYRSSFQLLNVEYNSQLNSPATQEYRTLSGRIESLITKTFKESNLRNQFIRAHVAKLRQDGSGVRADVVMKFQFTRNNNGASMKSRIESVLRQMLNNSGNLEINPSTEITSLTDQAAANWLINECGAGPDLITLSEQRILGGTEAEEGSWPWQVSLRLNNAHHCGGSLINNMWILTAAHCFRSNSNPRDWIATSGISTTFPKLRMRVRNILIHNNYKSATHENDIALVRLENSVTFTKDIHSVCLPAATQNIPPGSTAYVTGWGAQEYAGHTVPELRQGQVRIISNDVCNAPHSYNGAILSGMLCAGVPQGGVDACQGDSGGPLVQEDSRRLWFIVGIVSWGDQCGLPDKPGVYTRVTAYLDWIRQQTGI
In words: Control proteases inhibition assay, HAT protease. The note with it: inhibitor concentration 25 μM; after 30 min incubation at 37 °C. The format is biochemical. The procedure: as §1

Setting [3] is: tripeptide aldehydes, ref 11 (Stoermer et al.).

Like-named read-outs stand apart in the source and are kept apart here. Marks after values point to notes of the source that are not given here. Peptide text beside a SMILES is read from it. * marks the point of attachment. Cbz = O=C(OCc1ccccc1)*; PhAc = O=C(Cc1ccccc1)*

Chain of WNV NS2B/NS3 protease (P06935 1502-1680): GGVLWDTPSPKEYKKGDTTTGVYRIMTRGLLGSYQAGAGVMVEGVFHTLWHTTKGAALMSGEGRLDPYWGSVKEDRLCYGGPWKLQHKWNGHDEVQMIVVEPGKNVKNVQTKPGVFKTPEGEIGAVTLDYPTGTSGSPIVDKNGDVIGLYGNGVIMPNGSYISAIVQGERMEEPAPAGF
Chain of WNV NS2B/NS3 protease (P06935 1419-1466): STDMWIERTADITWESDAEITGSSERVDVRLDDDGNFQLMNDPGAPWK

As usually defined, the Ki is a measure of affinity in units of concentration, obtained from inhibition or displacement. Take `N=C(N)NCCC[C@@H](C=O)NC(=O)[C@H](CCCCN)NC(=O)[C@H](CCCCN)NC(=O)Cc1ccc(-c2ccccc2)cc1` [Compound 1]: the Ki in assay [1] (setting [3]) was 6 nM.

For `N=C(N)NCCC[C@@H](C=O)NC(=O)[C@H](CCCCN)NC(=O)[C@H](CCCCN)NC(=O)Cc1ccccc1` [Compound 2] (PhAc-Lys-Lys-Arg-aldehyde), in assay [1] (setting [3]), the Ki was 9 nM.

For the compound `N=C(N)NC1CCC(CNC(=O)[C@H](CCCCN)NC(=O)[C@H](CCCCN)NC(=O)Cc2ccc(Cl)c(Cl)c2)CC1` (stereo partly shown) [Compound 3], the Ki in assay [1] (ref 13 (Hammamy et al.)) was 130 nM.

With `NCCCC[C@H](NC(=O)c1ccc(/C=C2\SC(=O)N(CC3CCCCC3)C2=O)cc1)C(=O)N[C@@H](CCCCN)C(=O)N[C@H](C(N)=O)c1ccccc1` [Compound 4], the Ki in assay [1] (ref 14 (Bastos et al.)) was 750 nM.

On to `N=C(N)SCCCC(NC(=O)OCc1ccccc1)P(=O)(Oc1ccccc1)Oc1ccccc1` (stereo not shown) [Compound 8], for which the percent of inhibition on WNV NS2B/NS3 protease (substrate Pyr-RTKR-AMC 20 µM) is reported as 22%.

For the compound `NC(=O)CCC(NC(=O)OCc1ccccc1)P(=O)(Oc1ccccc1)Oc1ccccc1` (stereo not shown) [Compound 11, Cbz-Gln^P(OPh)2], the percent of inhibition at WNV NS2B/NS3 protease (substrate Pyr-RTKR-AMC 20 µM) came out at 15%.

`N#Cc1ccc2cc(C(NC(=O)OCc3ccccc3)P(=O)(Oc3ccccc3)Oc3ccccc3)ccc2c1` (stereo not shown) [Compound 22]: on WNV NS2B/NS3 protease (substrate Pyr-RTKR-AMC 20 µM), the percent of inhibition was 2%.

In general, inhibition refers to the share of the control response that was lost under treatment. For `N=C(N)c1ccc2cc(C(NC(=O)OCc3ccccc3)P(=O)(Oc3ccccc3)Oc3ccccc3)ccc2c1` (stereo not shown) [Compound 23], the inhibition at 100 µM at WNV NS2B/NS3 protease (read-out: percent of inhibition) came to 12%.

In turn, `O=C(NC(c1ccc(-n2cccn2)cc1)P(=O)(Oc1ccccc1)Oc1ccccc1)OCc1ccccc1` (stereo not shown) [Compound 24, Benzyl ((4-(1H-pyrazol-1-yl)phenyl)(diphenoxyphosphoryl)methyl)carbamate] had a percent of inhibition at WNV NS2B/NS3 protease (substrate Pyr-RTKR-AMC 20 µM) of 5%.

`O=C(NC(c1ccc(-n2cnc3ccccc32)cc1)P(=O)(Oc1ccccc1)Oc1ccccc1)OCc1ccccc1` (stereo not shown) [Compound 25] had a percent of inhibition on WNV NS2B/NS3 protease (substrate Pyr-RTKR-AMC 20 µM) of 4%.

`CN1CCN(c2ccc(C(NC(=O)OCc3ccccc3)P(=O)(Oc3ccccc3)Oc3ccccc3)cc2)CC1` (stereo not shown) [Compound 26] returned a percent of inhibition on WNV NS2B/NS3 protease (substrate Pyr-RTKR-AMC 20 µM) of 3%.

On WNV NS2B/NS3 protease (substrate Pyr-RTKR-AMC 20 µM), `O=C(NC(c1ccc(N2CCOCC2)cc1)P(=O)(Oc1ccccc1)Oc1ccccc1)OCc1ccccc1` (stereo not shown) [Compound 27] returned a percent of inhibition of 1%.

With `N=C(N)NCCC[C@H](NC(=O)[C@H](CCCCN)NC(=O)OCc1ccccc1)C(=O)NC(CCCCN)P(=O)(Oc1ccccc1)Oc1ccccc1` (stereo partly drawn) [Compound 36, Cbz-Lys-Arg-Lys^P(OPh)2], on WNV NS2B/NS3 protease, the affinity, expressed as Ki, was 8 ± 0.9 µM; the “improvement in inhibitory potency after introduction of P2 Arg and P3 Lys” value was found to be 69 fold. In addition, the k2/Ki on WNV NS2B/NS3 protease (substrate Pyr-RTKR-AMC 20 µM) is given as 5 520 M^−1s^−1. In addition, the “percent of inhibition, Trypsin” value at Bovine β-trypsin was 8%^a. The “percent of inhibition, CatG” value at human cathepsin G came out at 2%. In addition, the “percent of inhibition, HAT” value in assay [2] is listed as 2%.

On to `N=C(N)NCCCC(NC(=O)[C@H](CCCNC(=N)N)NC(=O)[C@H](CCCCN)NC(=O)OCc1ccccc1)P(=O)(Oc1ccccc1)Oc1ccccc1` (stereo partly drawn) [Compound 37, Cbz-Lys-Arg-Arg^P(OPh)2], for which, at WNV NS2B/NS3 protease, the inhibitory constant (Ki) came to 3 ± 0.3 µM; the “improvement in inhibitory potency after introduction of P2 Arg and P3 Lys” value is reported as 69 fold. The k2/Ki at WNV NS2B/NS3 protease (substrate Pyr-RTKR-AMC 20 µM) was 10 725 M^−1s^−1. Also, at Bovine β-trypsin, the “percent of inhibition, Trypsin” value is 7%. Besides, at human cathepsin G, the “percent of inhibition, CatG” value was found to be 3%. For the same compound, in assay [2], the “percent of inhibition, HAT” value is on record as 2%.

With `N=C(N)NCCCC(C=O)NC(=O)C(CCCNC(=N)N)NC(=O)C(CCCCN)NC(=O)OCc1ccccc1` (stereo not drawn) [Compound 40, Cbz-Lys-Arg-Arg-H, reference compound] (Cbz-Lys-Arg-Arg-aldehyde; configuration not given here), the inhibition constant (Ki) at WNV NS2B/NS3 protease (Table 2, peptide phosphonates and reference aldehyde, substrate Pyr-RTKR-AMC 20 µM, read-out: Ki) is 0.12 ± 0.02 µM.

Values taken from article PMC6211275, “Phosphonate inhibitors of West Nile virus NS2B/NS3 protease” (Journal of Enzyme Inhibition and Medicinal Chemistry, 2018).
